# Assay results from patent US10202339B2, “Therapeutic compounds and compositions” (AGIOS PHARMACEUTICALS, INC., priority 2012, dated 2019).
# Molecular target: IDH2 R140Q (Homo sapiens (Human), UniProt P48735, R140Q)
# Assay: IDH2 R140Q enzymatic cofactor depletion assay (diaphorase/resazurin)
# Type: biochemical
# Details: IDH2 R140Q enzyme, one hour preincubation with compound, one hour reaction; read-out: Enz R140Q
# Description: The reaction was terminated by the addition of a second enzyme, diaphorase, and a corresponding substrate, resazurin. Diaphorase reduces resazurin to the highly fluorescent resorufin with the concomitant oxidation of NADPH to NADP, both halting the IDH2 reaction by depleting the available cofactor pool and facilitating quantitation of the amount of cofactor remaining after a specific time period through quantitative production of an easily detected fluorophore.
# The compound was then incubated for one hour at room temperature with the enzyme; before starting the IDH2 reaction with the addition of 10 μl of substrate mix containing 50 μM NADPH and 6.3 mM α-KG in the buffer described above. After a further one hour of incubation at room temperature, the reaction was halted and the remaining NADPH measured through conversion of resazurin to resorufin by the addition of 25 μl Stop Mix (36 μg/ml diaphorase enzyme and 60 μM resazurin; in buffer). After one minute of incubation the plate was read on a plate reader at Ex544/Em590.
# IDH2 R140Q, sequence (P48735 40-452 R140Q): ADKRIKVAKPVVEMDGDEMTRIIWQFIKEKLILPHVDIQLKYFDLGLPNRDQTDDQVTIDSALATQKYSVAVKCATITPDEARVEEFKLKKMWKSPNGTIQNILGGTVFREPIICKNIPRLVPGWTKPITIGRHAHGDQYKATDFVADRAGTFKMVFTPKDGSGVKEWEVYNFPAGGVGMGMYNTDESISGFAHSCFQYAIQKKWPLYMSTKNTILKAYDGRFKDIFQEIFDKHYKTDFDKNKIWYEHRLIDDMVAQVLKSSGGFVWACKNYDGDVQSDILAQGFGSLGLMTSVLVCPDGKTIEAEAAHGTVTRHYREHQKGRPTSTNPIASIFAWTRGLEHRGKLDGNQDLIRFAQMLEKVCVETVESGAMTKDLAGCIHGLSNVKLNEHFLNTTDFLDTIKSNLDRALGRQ
row,IC50,SMILES
1,100 to 1000 nM,"O=C(Nc1cccc(C(F)(F)F)c1)Nc1cc(S(=O)(=O)NCC(F)(F)F)ccc1-c1ccccc1 [Compound 44, N-(2,2,2-trifluoroethyl)-2-(3-(3-(trifluoromethyl)phenyl)ureido)-[1,1′-biphenyl]-4-sulfonamide]"
2,< 100 nM,"O=C(Nc1cccc(C(F)(F)F)c1)Nc1cc(S(=O)(=O)NC2COC2)ccc1-c1ccccc1 [Compound 45, N-(oxetan-3-yl)-2-(3-(3-(trifluoromethyl)phenyl)ureido)-[1,1′-biphenyl]-4-sulfonamide]"
3,100 to 1000 nM,"N#CC1(NS(=O)(=O)c2ccc(-c3ccccc3)c(NC(=O)Nc3cccc(C(F)(F)F)c3)c2)CC1 [Compound 46, N-(1-cyanocyclopropyl)-2-(3-(3-(trifluoromethyl)phenyl)ureido)-[1,1′-biphenyl]-4-sulfonamide]"
4,100 to 1000 nM,"Cc1cccc(-c2ccc(S(=O)(=O)NC3CCOCC3)cc2NC(=O)Nc2cccc(C(F)(F)F)c2)c1 [Compound 47, 3′-methyl-N-(tetrahydro-2H-pyran-4-yl)-2-(3-(3-(trifluoromethyl)phenyl)ureido)-[1,1′-biphenyl]-4-sulfonamide]"
5,1000 to 10000 nM,"Cc1cccc(-c2ccc(S(=O)(=O)NC3CC3)cc2NC(=O)Nc2cccc(C(F)(F)F)c2)c1 [Compound 48, N-cyclopropyl-3′-methyl-2-(3-(3-(trifluoromethyl)phenyl)ureido)-[1,1′-biphenyl]-4-sulfonamide]"
6,100 to 1000 nM,"O=C(Nc1cccc(C(F)(F)F)c1)Nc1cc(S(=O)(=O)Nc2ccccc2)ccc1-c1cccc(O)c1 [Compound 50, 3′-hydroxy-N-phenyl-2-(3-(3-(trifluoromethyl)phenyl)ureido)-[1,1′-biphenyl]-4-sulfonamide]"
7,1000 to 10000 nM,COc1cccc(-c2ccc(S(=O)(=O)Nc3ccccc3)cc2NC(=O)Nc2cccc(C(F)(F)F)c2)c1 [Compound 51]
8,1000 to 10000 nM,O=C(Nc1ccc(F)c(Cl)c1)Nc1cc(S(=O)(=O)NC2CC2)ccc1-c1ccccc1 [Compound 52]
9,1000 to 10000 nM,O=C(Nc1ccc(F)cc1)Nc1cc(S(=O)(=O)NC2CC2)ccc1-c1ccccc1 [Compound 53]
10,1000 to 10000 nM,O=C(Nc1cc(S(=O)(=O)NCC(F)(F)F)ccc1-c1ccccc1)NC1CCCC1 [Compound 54]
11,1000 to 10000 nM,O=C(Nc1ccc(F)c(Cl)c1)Nc1cc(S(=O)(=O)NCC(F)(F)F)ccc1-c1cccnc1 [Compound 55]
12,1000 to 10000 nM,O=C(Nc1ccc(F)c(C(F)(F)F)c1)Nc1cc(S(=O)(=O)NCC(F)(F)F)ccc1-c1cccnc1 [Compound 56]
13,1000 to 10000 nM,O=C(Nc1cccc(C(F)(F)F)c1)Nc1cc(S(=O)(=O)Nc2ccccc2)ccc1-c1cccc(Cl)c1 [Compound 57]
14,1000 to 10000 nM,CS(=O)(=O)c1cccc(-c2ccc(S(=O)(=O)Nc3ccccc3)cc2NC(=O)Nc2cccc(C(F)(F)F)c2)c1 [Compound 58]
15,1000 to 10000 nM,COc1ccc(-c2ccc(S(=O)(=O)Nc3ccccc3)cc2NC(=O)Nc2cccc(C(F)(F)F)c2)cc1 [Compound 59]
16,1000 to 10000 nM,O=C(Nc1cccc(C(F)(F)F)c1)Nc1cc(S(=O)(=O)Nc2ccccc2)ccc1-c1ccncc1 [Compound 60]
17,1000 to 10000 nM,O=C(Nc1cccc(C(F)(F)F)c1)Nc1cc(S(=O)(=O)Nc2ccccc2)ccc1-c1cccnc1 [Compound 61]
18,1000 to 10000 nM,Cc1ccc(-c2ccc(S(=O)(=O)Nc3ccccc3)cc2NC(=O)Nc2cccc(C(F)(F)F)c2)cc1 [Compound 62]
19,1000 to 10000 nM,O=C(Nc1cccc(C(F)(F)F)c1)Nc1cc(S(=O)(=O)Nc2ccccc2)ccc1-c1ccccc1F [Compound 63]
20,1000 to 10000 nM,O=C(Nc1cccc(C(F)(F)F)c1)Nc1cc(S(=O)(=O)Nc2ccccc2)ccc1-c1cccc(F)c1 [Compound 64]
21,1000 to 10000 nM,O=C(Nc1cc(C(F)(F)F)ccn1)Nc1cc(S(=O)(=O)NCC(F)(F)F)ccc1-c1cccnc1 [Compound 65]

row,IC50,SMILES
1,100 to 1000 nM,"O=C(Nc1cc(S(=O)(=O)NCC(F)(F)F)ccc1-c1ccccc1)NC1CCCCC1 [Compound 66, 2-(3-cyclohexylureido)-N-(2,2,2-trifluoroethyl)-[1,1′-biphenyl]-4-sulfonamide]"
2,100 to 1000 nM,"CS(=O)(=O)c1cccc(NC(=O)Nc2cc(S(=O)(=O)NCC(F)(F)F)ccc2-c2ccccc2)c1 [Compound 67, 2-(3-(3-(methylsulfonyl)phenyl)ureido)-N-(2,2,2-trifluoroethyl)-[1,1′-biphenyl]-4-sulfonamide]"
3,100 to 1000 nM,"O=C(Nc1ccc(F)cc1F)Nc1cc(S(=O)(=O)NCC(F)(F)F)ccc1-c1ccccc1 [Compound 68, 2-(3-(2,4-difluorophenyl)ureido)-N-(2,2,2-trifluoroethyl)-[1,1′-biphenyl]-4-sulfonamide]"
4,100 to 1000 nM,"O=C(Nc1ccc(F)c(C(F)(F)F)c1)Nc1cc(S(=O)(=O)NCC(F)(F)F)ccc1-c1ccccc1 [Compound 69, 2-(3-(4-fluoro-3-(trifluoromethyl)phenyl)ureido)-N-(2,2,2-trifluoroethyl)-[1,1′-biphenyl]-4-sulfonamide]"
5,100 to 1000 nM,"O=C(Nc1nccs1)Nc1cc(S(=O)(=O)NCC(F)(F)F)ccc1-c1ccccc1 [Compound 70, 2-(3-(thiazol-2-yl)ureido)-N-(2,2,2-trifluoroethyl)-[1,1′-biphenyl]-4-sulfonamide]"
6,100 to 1000 nM,"CC1CCCC(NC(=O)Nc2cc(S(=O)(=O)NCC(F)(F)F)ccc2-c2ccccc2)C1 (stereo not drawn) [Compound 71, 2-(3-(3-methylcyclohexyl)ureido)-N-(2,2,2-trifluoroethyl)-[1,1′-biphenyl]-4-sulfonamide]"
7,100 to 1000 nM,"O=C(Nc1cc(S(=O)(=O)NCC(F)(F)F)ccc1-c1ccccc1)NC1CCCC(C(F)(F)F)C1 (stereo not drawn) [Compound 72, N-(2,2,2-trifluoroethyl)-2-(3-(3-(trifluoromethyl)cyclohexyl)ureido)-[1,1′-biphenyl]-4-sulfonamide]"
8,1000 to 10000 nM,CC1(C)CCCC(NC(=O)Nc2cc(S(=O)(=O)NCC(F)(F)F)ccc2-c2ccccc2)C1 (stereo not drawn) [Compound 73]
9,100 to 1000 nM,"O=C(Nc1cc(Cl)ccc1F)Nc1cc(S(=O)(=O)NCC(F)(F)F)ccc1-c1ccccc1 [Compound 74, 2-(3-(5-chloro-2-fluorophenyl)ureido)-N-(2,2,2-trifluoroethyl)-[1,1′-biphenyl]-4-sulfonamide]"
10,100 to 1000 nM,"O=C(Nc1cc(S(=O)(=O)NCC(F)(F)F)ccc1-c1ccccc1)Nc1ccc(F)cc1C(F)(F)F [Compound 76, 2-(3-(4-fluoro-2-(trifluoromethyl)phenyl)ureido)-N-(2,2,2-trifluoroethyl)-[1,1′-biphenyl]-4-sulfonamide]"
11,100 to 1000 nM,"O=C(Nc1cc(S(=O)(=O)NCC(F)(F)F)ccc1-c1ccccc1)Nc1ccncc1C(F)(F)F [Compound 78, N-(2,2,2-trifluoroethyl)-2-(3-(3-(trifluoromethyl)pyridin-4-yl)ureido)-[1,1′-biphenyl]-4-sulfonamide]"
12,100 to 1000 nM,"O=C(Nc1cccc(Cl)n1)Nc1cc(S(=O)(=O)NCC(F)(F)F)ccc1-c1ccccc1 [Compound 79, 2-(3-(6-chloropyridin-2-yl)ureido)-N-(2,2,2-trifluoroethyl)-[1,1′-biphenyl]-4-sulfonamide]"
13,100 to 1000 nM,"O=C(Nc1cccc(CO)c1)Nc1cc(S(=O)(=O)NCC(F)(F)F)ccc1-c1ccccc1 [Compound 80, 2-(3-(3-(hydroxymethyl)phenyl)ureido)-N-(2,2,2-trifluoroethyl)-[1,1′-biphenyl]-4-sulfonamide]"
14,100 to 1000 nM,"O=C(Nc1cccc(O)c1)Nc1cc(S(=O)(=O)NCC(F)(F)F)ccc1-c1ccccc1 [Compound 81, 2-(3-(3-hydroxyphenyl)ureido)-N-(2,2,2-trifluoroethyl)-[1,1′-biphenyl]-4-sulfonamide]"
15,100 to 1000 nM,"O=C(Nc1cc(Cl)ccn1)Nc1cc(S(=O)(=O)NCC(F)(F)F)ccc1-c1ccccc1 [Compound 82, 2-(3-(4-chloropyridin-2-yl)ureido)-N-(2,2,2-trifluoroethyl)-[1,1′-biphenyl]-4-sulfonamide]"
16,100 to 1000 nM,"C[S+]([O-])c1cccc(NC(=O)Nc2cc(S(=O)(=O)NCC(F)(F)F)ccc2-c2ccccc2)c1 (stereo not drawn) [Compound 83, 2-(3-(3-(methylsulfinyl)phenyl)ureido)-N-(2,2,2-trifluoroethyl)-[1,1′-biphenyl]-4-sulfonamide]"
17,100 to 1000 nM,"O=C(Nc1cc(S(=O)(=O)NCC(F)(F)F)ccc1-c1ccccc1)Nc1cnccc1C(F)(F)F [Compound 84, N-(2,2,2-trifluoroethyl)-2-(3-(4-(trifluoromethyl)pyridin-3-yl)ureido)-[1,1′-biphenyl]-4-sulfonamide]"
18,100 to 1000 nM,"O=C(Nc1cnccc1Cl)Nc1cc(S(=O)(=O)NCC(F)(F)F)ccc1-c1ccccc1 [Compound 85, 2-(3-(4-chloropyridin-3-yl)ureido)-N-(2,2,2-trifluoroethyl)-[1,1′-biphenyl]-4-sulfonamide]"
19,100 to 1000 nM,"O=C(Nc1cccc(F)n1)Nc1cc(S(=O)(=O)NCC(F)(F)F)ccc1-c1ccccc1 [Compound 86, 2-(3-(6-fluoropyridin-2-yl)ureido)-N-(2,2,2-trifluoroethyl)-[1,1′-biphenyl]-4-sulfonamide]"
20,100 to 1000 nM,"O=C(Nc1cc(C(F)(F)F)ccn1)Nc1cc(S(=O)(=O)NCC(F)(F)F)ccc1-c1ccccc1 [Compound 87, N-(2,2,2-trifluoroethyl)-2-(3-(4-(trifluoromethyl)pyridin-2-yl)ureido)-[1,1′-biphenyl]-4-sulfonamide]"
21,100 to 1000 nM,"O=C(Nc1cccc(Cl)c1)Nc1cc(S(=O)(=O)NCC(F)(F)F)ccc1-c1ccccc1 [Compound 88, 2-(3-(3-chlorophenyl)ureido)-N-(2,2,2-trifluoroethyl)-[1,1′-biphenyl]-4-sulfonamide]"
